Patent US20160257735A1, “REGULATION OF NPVF GENE AND ITS PRODUCTS: A METHOD FOR MODULATING ENERGY IMBALANCE” (Institute of Animal Reproduction and Food Research PAS, priority 2015, published 2016)
Ends that are not written are not given here.

Tests used:
NPFFR1 = NPFFR1 (Homo sapiens, UniProt Q9GZQ6); conditions: cited from earlier work
[1] = test system: Npvf mRNA in hypothalamus; experiment: CL 316,243 or saline administration for 7 days at 29° C., Npvf mRNA in hypothalamus by qRT-PCR; format: in vivo, mice (C57BL/6J); conditions: one week administration, 1 mg/kg of body weight, subcutaneous, mice at 29° C.
Method: Total RNA was isolated from adipose tissue, liver and hypothalamus using TRI Reagent and BCP phase separation reagent (Molecular Research Center Inc. Cincinnati, Ohio, United States). RNA was further purified by using the RNAeasy minikit (QIAGEN, Valencia, Calif., United States) and stored at −80° C. in RNase-free H2O with addition of SUPERase-In (Ambion, Austin, Tex., United States) for RNase protection. Quality and quantity of RNA was determined using UV spectrophotometry (Nanodrop) and agarose gel visualization of intact RNA. Quantitative RT-PCR using TaqMan probes and primers (Applied Biosystems, Foster City, Calif., United States) was performed with standard curves generated using pooled RNA isolated from corresponding tissues collected from eight 8 week old C57BL/6J.+/+ mice. Probe and primer sequences used to perform the analyses are available upon request. All the gene expression data were normalized to the level of cyclophilin b.
To establish the influence of different ambient temperature on Npvf expression mice were kept in climate-controlled rodent incubators. To evaluate the effects of the β adrenergic receptor agonist on Ucp1 and Npvf, thermoneutrally acclimated mice were injected subcutaneously with 1 mg kg^−1 […] or saline for 7 days.
All mice used in the following studies were adult wild-type C57BL/6J+/+ mice. […]

[2] = test system: NPFF receptors (NPFF1 and NPFF2 subtypes); conditions: cited from earlier work
[3] = molecular target: T1, rat orphan 7TM GPCR (OT7T022, GPR147, NPFFR1) (Rattus norvegicus, UniProt Q9EP86); conditions: synthetic RFRPs; cited from earlier work
T1 construct: expressed in transfected cells; host or cells: CHO cells
T1 sequence (Q9EP86 whole entry): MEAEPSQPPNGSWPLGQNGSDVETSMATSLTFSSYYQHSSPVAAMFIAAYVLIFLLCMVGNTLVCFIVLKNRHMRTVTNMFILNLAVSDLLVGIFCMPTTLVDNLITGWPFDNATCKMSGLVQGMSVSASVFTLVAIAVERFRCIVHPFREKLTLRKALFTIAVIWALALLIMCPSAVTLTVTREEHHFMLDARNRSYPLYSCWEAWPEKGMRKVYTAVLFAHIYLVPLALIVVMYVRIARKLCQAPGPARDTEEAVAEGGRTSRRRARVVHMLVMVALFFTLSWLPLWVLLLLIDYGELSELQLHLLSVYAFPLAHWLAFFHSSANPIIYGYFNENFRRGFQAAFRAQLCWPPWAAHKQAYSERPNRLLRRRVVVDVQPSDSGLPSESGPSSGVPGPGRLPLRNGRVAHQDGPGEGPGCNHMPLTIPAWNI

Sequence of NPFFR1 (Q9GZQ6 whole entry, species assumed): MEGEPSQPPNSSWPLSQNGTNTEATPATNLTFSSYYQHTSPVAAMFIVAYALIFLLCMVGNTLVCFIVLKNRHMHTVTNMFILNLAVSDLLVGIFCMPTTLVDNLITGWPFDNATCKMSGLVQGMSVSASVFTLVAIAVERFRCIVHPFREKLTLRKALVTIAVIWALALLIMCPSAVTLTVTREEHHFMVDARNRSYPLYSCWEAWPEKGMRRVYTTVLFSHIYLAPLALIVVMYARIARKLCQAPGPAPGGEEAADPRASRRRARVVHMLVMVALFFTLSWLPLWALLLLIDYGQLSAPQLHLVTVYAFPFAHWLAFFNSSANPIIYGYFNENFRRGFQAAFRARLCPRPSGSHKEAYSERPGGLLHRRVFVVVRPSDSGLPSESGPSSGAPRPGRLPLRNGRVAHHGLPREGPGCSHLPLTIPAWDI

NC(N)=NCCC[C@@H](NC(=O)C(c1ccccc1)c1ccccc1)C(=O)NCc1ccc(O)cc1 [BIBP3226]
binding to NPFFR1 (NPFFR1): has been shown to bind to NPFFR1

C[C@H](Cc1ccc2c(c1)OC(C(=O)[O-])(C(=O)[O-])O2)NC[C@H](O)c1cccc(Cl)c1.[Na+].[Na+] [CL 316,243]
suppression of Npvf mRNA in hypothalamus compared to saline-treated control mice [1]: did not result in the suppression of Npvf mRNA in hypothalamus

NC(=O)[C@H](Cc1ccccc1)NC(=O)[C@H](CCCN=C(N)N)NC(=O)C12CC3CC(CC(C3)C1)C2 [RF9, adamantylcarbonyl-arginyl-phenylalaninamide]
discrimination between NPFF1 and NPFF2 subtypes [2]: does not distinguish between the NPFF1 and NPFF2 subtypes | selectivity for NPFF receptors [2]: selective for NPFF receptors

RFRP-1: RFamide-related peptide derived from Npvf precursor; human sequence MPHSFANLPLRF-NH(2) (SEQ ID NO: 1) (MPHSFANLPLRF-NH2; listed as Homo sapiens)
response of GPR147-transfected CHO cell lines [3]: responded specifically

RFRP-3: RFamide-related peptide derived from Npvf precursor; human sequence VPNLPQRF-NH(2) (SEQ ID NO: 2)
response of GPR147-transfected CHO cell lines [3]: responded specifically
